Laboratory results taken from ChEMBL document CHEMBL1201862, “PubChem BioAssay data set” (2004).
Where “and” joins values, the source holds several entries; their conditions need not be identical. Identical values can stand only once.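 1) Cells in 96-well plates. 2) Compound, 48 h, 5 concentrations. 3) Linear interpolation between surrounding doses. 4) Unreached endpoint = highest concentration. GI50 marks 50% less growth.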 Calls of active or inactive are those of the source. Rule as the data show it: active = GI50 up to about 1.1 µM and inactive = higher.

Legend:
Test in all cases: NCI anticancer screen, dose series, 48 h
786-0 = system: 786-0
A549 = system: A549
ACHN = system: ACHN
BT-549 = system: BT-549
CCRF-CEM = system: CCRF-CEM
COLO 205 = system: COLO 205
DU-145 = system: DU-145
EKVX = system: EKVX
HCC 2998 = system: HCC 2998
HCT-116 = system: HCT-116
HCT-15 = system: HCT-15
HL-60 = system: HL-60
HOP-62 = system: HOP-62
HT-29 = system: HT-29
Hs-578T = system: Hs-578T
IGROV-1 = system: IGROV-1
K562 = system: K562
KM12 = system: KM12
LOX IMVI = system: LOX IMVI
M14 = system: M14
MCF7 = system: MCF7
MDA-MB-231 = system: MDA-MB-231
MDA-MB-435 = system: MDA-MB-435
MDA-N = system: MDA-N
MOLT-4 = system: MOLT-4
Malme-3M = system: Malme-3M
NCI-H226 = system: NCI-H226
NCI-H23 = system: NCI-H23
NCI-H460 = system: NCI-H460
NCI-H522 = system: NCI-H522
NCI/ADR-RES = system: NCI/ADR-RES
OVCAR-3 = system: OVCAR-3
OVCAR-5 = system: OVCAR-5
OVCAR-8 = system: OVCAR-8
PC-3 = system: PC-3
RPMI-8226 = system: RPMI-8226
RXF 393 = system: RXF 393
SF-268 = system: SF-268
SF-539 = system: SF-539
SK-MEL-28 = system: SK-MEL-28
SK-MEL-2 = system: SK-MEL-2
SK-MEL-5 = system: SK-MEL-5
SN12C = system: SN12C
SNB-19 = system: SNB-19
SNB-75 = system: SNB-75
SR = system: SR
SW-620 = system: SW-620
TK-10 = system: TK-10
UACC-257 = system: UACC-257
UACC-62 = system: UACC-62
UO-31 = system: UO-31
A498 = system: A498
OVCAR-4 = system: OVCAR-4
SF-295 = system: SF-295
SK-OV-3 = system: SK-OV-3

For `CC(=N/NC(N)=S)/C(C)=N/NC(N)=S`, the GI50 (786-0) was > 100 µM (inactive), the GI50 (A549) was > 100 µM (inactive) and the GI50 (ACHN) was > 100 µM (inactive). The GI50 (BT-549) was > 100 µM (inactive), the GI50 (CCRF-CEM) was > 100 µM (inactive) and the GI50 (COLO 205) was > 100 µM (inactive). The GI50 (DU-145) was > 100 µM (inactive), the GI50 (EKVX) was > 100 µM (inactive) and the GI50 (HCC 2998) was > 100 µM (inactive). For the same compound, the GI50 (HCT-116) was > 100 µM (inactive), the GI50 (HCT-15) was greater than 100 µM and the GI50 (HL-60) was > 100 µM (inactive). For the same compound, the GI50 (HOP-62) was > 100 µM (inactive), the GI50 (HT-29) was > 100 µM (inactive) and the GI50 (Hs-578T) was > 100 µM (inactive). The GI50 (IGROV-1) was > 100 µM (inactive), the GI50 (K562) was > 100 µM (inactive) and the GI50 (KM12) was > 100 µM (inactive). For the same compound, the GI50 (LOX IMVI) was > 100 µM (inactive), the GI50 (M14) was > 100 µM (inactive) and the GI50 (MCF7) was > 100 µM (inactive). For the same compound, the GI50 (MDA-MB-231) was > 100 µM (inactive), the GI50 (MDA-MB-435) was > 100 µM (inactive) and the GI50 (MDA-N) was > 100 µM (inactive). For the same compound, the GI50 (MOLT-4) was > 100 µM (inactive), the GI50 (Malme-3M) was > 100 µM (inactive) and the GI50 (NCI-H226) was > 100 µM (inactive). For the same compound, the GI50 (NCI-H23) was > 100 µM (inactive), the GI50 (NCI-H460) was > 100 µM (inactive) and the GI50 (NCI-H522) was > 100 µM (inactive). For the same compound, the GI50 (NCI/ADR-RES) was > 100 µM (inactive), the GI50 (OVCAR-3) was > 100 µM (inactive) and the GI50 (OVCAR-5) was > 100 µM (inactive). The GI50 (OVCAR-8) was > 100 µM (inactive), the GI50 (PC-3) was > 100 µM (inactive) and the GI50 (RPMI-8226) was > 100 µM (inactive). For the same compound, the GI50 (RXF 393) was > 100 µM (inactive), the GI50 (SF-268) was > 100 µM (inactive) and the GI50 (SF-539) was > 100 µM (inactive). The GI50 (SK-MEL-28) was > 100 µM (inactive), the GI50 (SK-MEL-2) was > 100 µM (inactive) and the GI50 (SK-MEL-5) was > 100 µM (inactive). The GI50 (SN12C) was > 100 µM (inactive), the GI50 (SNB-19) was > 100 µM (inactive) and the GI50 (SNB-75) was > 100 µM (inactive). For the same compound, the GI50 (SR) was > 100 µM (inactive), the GI50 (SW-620) was > 100 µM (inactive) and the GI50 (TK-10) was > 100 µM (inactive). The GI50 (UACC-257) was > 100 µM (inactive), the GI50 (UACC-62) was > 100 µM (inactive) and the GI50 (UO-31) was > 100 µM (inactive).
With `CC(C)=CCCC1(C)C2COC(=O)C21` (stereo not drawn) the GI50 (786-0) was > 100 µM (inactive) and 63.2 µM (inactive), the GI50 (A498) was > 100 µM (inactive) and the GI50 (ACHN) was > 100 µM (inactive) and 68.9 µM (inactive). The GI50 (BT-549) was > 100 µM (inactive), the GI50 (DU-145) was > 100 µM (inactive) and the GI50 (EKVX) was 67.5 µM (inactive). For the same compound, the GI50 (HCC 2998) was > 100 µM (inactive), the GI50 (HT-29) was > 100 µM (inactive) and the GI50 (IGROV-1) was 53.7 µM (inactive). The GI50 (MCF7) was 31.3 µM (inactive) and 33.9 µM (inactive), the GI50 (MDA-MB-231) was > 100 µM (inactive) and the GI50 (Malme-3M) was > 100 µM (inactive). The GI50 (OVCAR-4) was > 100 µM (inactive) and 80 µM (inactive), the GI50 (OVCAR-5) was > 100 µM (inactive) and the GI50 (PC-3) was > 100 µM (inactive). The GI50 (RXF 393) was > 100 µM (inactive), the GI50 (SF-268) was > 100 µM (inactive) and the GI50 (SF-295) was > 100 µM (inactive) and 63.2 µM (inactive). For the same compound, the GI50 (SK-MEL-28) was > 100 µM (inactive), the GI50 (SK-MEL-2) was > 100 µM (inactive) and the GI50 (SK-OV-3) was > 100 µM (inactive). For the same compound, the GI50 (SNB-19) was > 100 µM (inactive), the GI50 (SW-620) was 64.7 µM (inactive) and the GI50 (TK-10) was > 100 µM (inactive). The GI50 (UACC-257) was > 100 µM (inactive), the GI50 (UACC-62) was > 100 µM (inactive) and the GI50 (UO-31) was > 100 µM (inactive).
